Test system: epidermal cells
Conditions: 5 mg/g of CMC, pyramidal array applied 5 minutes, 72 hours of exposure
Experimental: This is a therapeutically relevant concentration based on the area of skin targeted, yet well below levels associated with systemic toxicities. […] Arrays and residual material were removed 5 minutes after application, and after 72 hours of exposure, culture living skin explants were cryo-sectioned and fixed.

## O=P1(N(CCCl)CCCl)NCCCO1 (stereo not shown) [CYTOXAN, cyclophosphamide]
  apoptosis (TUNEL) in skin sections: extensive apoptosis of epidermal cells

Reference: patent US8834423B2, “Dissolvable microneedle arrays for transdermal delivery to human skin” (University of Pittsburgh—of the Commonwealth System of …, priority 2009, dated 2014)
